Patent publication EP0888303B1, “SYNTHETIC DERIVATIVES OF RAPAMYCIN AS MULTIMERIZING AGENTS FOR CHIMERIC PROTEINS WITH IMMUNOPHILIN-DERIVED DOMAINS” (ARIAD Pharmaceuticals, Inc, priority 1996, dated 1997)
Where “and” joins values, the source holds several entries; their conditions need not be identical. Equal entries are not always repeated. Where two headings read alike, the source gives them in different places.

Columns and labels:
wild-type human FKBP12 = wild-type human FKBP12 (Homo sapiens, UniProt P62942); experiment: Competitive Binding FP Assay
Procedure: (§1) Affinities of bumped synthetic ligands for FKBP were determined using a competitive assay based on fluorescence polarization (FP). […] The assay yields IC50 values that are related to the affinity of the competitive ligand for the protein.
(§2) All binding assay procedures were performed at room temperature. Serial dilutions of each protein were prepared in 50 mM potassium phosphate pH 7.8/150 mM NaCl/ 100µg/ml bovine gamma globulin ("FP buffer": prepared using only low-fluorescence reagents from Panvera), and 100 µl volumes transferred to wells of a Dynatech micro-fluor black 96-well fluorescence plate. 100 µl of 10 nM 4 in FP buffer plus 2% ethanol (prepared from an ethanol stock of the probe) was then added to each well with mixing. Duplicate control wells contained FP buffer instead of FKBP (for 0% probe binding) or 10 µM wild-type FKBP (for 100% binding).
(§3) The plates were stored covered in the dark for approximately 30 min to permit equilibration and then the fluorescence polarization of the sample in each well was read on a Jolley FPM-2 FP plate reader (Jolley Consulting and Research, Inc., Grayslake, IL) in accordance with the manufacturer's recommendations. Polarization (mP units) for each protein concentration was plotted (y axis) vs. final concentration of FKBP (x axis). Concentrations were determined by OD280 measurements. Arbitrary units were used for non-quantitated proteins.
Serial 10-fold dilutions of each synthetic ligand were prepared in 100% ethanol in glass vials and stored on ice. All other manipulations were performed at room temperature. […] Finally, a probe solution was prepared containing 10 nM 4 in 0.1% ethanol/FP buffer, and 100 µl added to each well with mixing. Duplicate control wells contained ethanol instead of FKBP ligand (for 100% probe binding) or ethanol instead of FKBP ligand and FP buffer instead of FKBP (0% binding).
(§4) The plates were stored covered in the dark for approximately 30 min to permit equilibration and then the fluorescence polarization of the sample in each well read on a Jolley FPM-2 FP plate reader (Jolley Consulting and Research, Inc., Grayslake, IL) in accordance with the manufacturer's recommendations. The mean polarization (mP units) for each competitor concentration, in some cases converted to % total binding by reference to the control values, was plotted (y axis) vs. log molar final concentration of competitor (x axis). […] For incomplete curves the IC50 was determined by interpolation.

mutant (F36V) FKBP = experiment: Competitive Binding FP Assay; design: species or system human
Procedure: as §1, §2, §3
(§5) Serial 10-fold dilutions of each synthetic ligand were prepared in 100% ethanol in glass vials and stored on ice. All other manipulations were performed at room temperature. […] 2.0 µl samples of the synthetic ligands were then transferred in duplicate to the wells with mixing. Finally, a probe solution was prepared containing 10 nM 4 in 0.1% ethanol/FP buffer, and 100 µl added to each well with mixing. Duplicate control wells contained ethanol instead of FKBP ligand (for 100% probe binding) or ethanol instead of FKBP ligand and FP buffer instead of FKBP (0% binding).
as §4

F36L mutant FKBP = F36L mutant FKBP (Homo sapiens, UniProt P62942, F37L); experiment: Competitive Binding FP Assay
Procedure: as §1, §2, §3, §5, §4

F36I mutant FKBP = experiment: Competitive Binding FP Assay; design: species or system human; conditions: Synthetic Monomers table; normalized to value of FK506 run in the same experiment
Procedure: as §1, §2, §3, §5, §4

F36M mutant FKBP = experiment: Competitive Binding FP Assay; design: species or system human; conditions: Synthetic Monomers table; normalized to value of FK506 run in the same experiment
Procedure: as §1, §2, §3, §5, §4

F36A mutant FKBP = experiment: Competitive Binding FP Assay; design: species or system human; conditions: Synthetic Monomers table; normalized to value of FK506 run in the same experiment
Procedure: as §1, §2, §3, §5, §4

[1] = test system: FKBP-containing fusion proteins (wt FKBP); experiment: Transcription Assay, activation of reporter gene transcription (wt; stable); type: cell-based, human; conditions: at 1000 nM; each value an individual experiment
Excerpt: The ability of the multimerizing agents to multimerize chimeric proteins may be measured cell-based assays by measuring the occurrence of an event triggered by such multimerization. For instance, one may use cells containing and capable of expressing DNAs encoding chimeric proteins comprising one or more immunophilin-derived ligand binding domains and one or more effector domains capable, upon multimerization, of actuating a biological response. We prefer to use cells which further contain a reporter gene under the transcriptional control of a regulatory element (i.e., promoter) which is responsive to the multimerization of the chimeric proteins (at least one of which contains an FKBP domain). […] The cells are grown or maintained in culture. A multimerizing agent is added to the culture medium and after a suitable incubation period (to permit gene expression and secretion, e.g. several hours or overnight) the presence of the reporter gene product is measured. Positive results, i.e., multimerization, correlates with transcription of the reporter gene as observed by the appearance of the reporter gene product. The reporter gene product may be a conveniently detectable protein (e.g. by ELISA) or may catalyze the production of a conveniently detectable product (e.g. colored).
Dimerizers may also be assayed for their ability to activate transcription of a reporter gene linked to a regulatory sequence responsive to the dimerization of FKBP-containing fusion proteins containing one or more transcription regulatory domains (e.g. DNA binding domains and transcription activation domains). We have made use of such as system as follows. […] The reporter plasmid (G5IL2-SEAP) used in these assays contains a gene that encodes for secreted alkaline phosphatase (SEAP) under the control of the minimal IL2 promoter and 5XGAL4 binding sites placed upstream of the promoter. In all cases, a plasmid expressing growth hormone was used as an internal control to moniter transfection efficiency. Approximately, 16 hrs after transfection, the media was removed and the cells were washed twice with PBS. Cells were refed with 2.5 ml of DMEM containing 10% serum and two hours later, synthetic dimerizers were added directly to the medium at appropriate concentrations in 5ul of ethanol carrier solution. Approximetely, 24 hrs after the addition of the drugs, 100 ul of the media was removed and assayed for SEAP activity and another 100 ul of the media was used to assay for growth hormone activity (to normalize for transfection efficiency).

[2] = test system: FAS-FKBP fusion (wt FKBP) in HT1080 cells; type: cell-based, human; conditions: for Fas killing (wt, stable): % @ 1000: human, ht1080 cells, 1 µM
Excerpt: In this case, one uses cells which constituively express a detectable product. The cells also contain and are capable of expressing DNAs encoding chimeric proteins comprising one or more immunophilin-derived ligand binding domains and one or more effector domains, such as the intracellular domain of FAS, capable, upon multimerization, of triggering cell death. […] The cells are maintainined or cultured in a culture medium permitting cell growth or continued viability. The cells or medium are assayed for the presence of the constitutive cellular product, and a base-line level of reporter is thus established. One may use cells engineered for constituive production of hGH or any other conveniently detectable product to serve as the reporter. The compound to be tested is addded to the medium, the cells are incubated, and the cells or medium is tested for the presence of reporter at one or more time points. Decrease in reporter production indicates cell death, an indirect measure of multimerization of the fusion proteins.
The ability of a dimerizer to activate the Fas signal transduction pathway and trigger cell death in cells engineered to express a FAS-FKBP fusion can be tested in cells appropriately transduced by retroviral vectors to express the desired fusion protein. […] The retroviral supernatant is used to transduce target cells. To screen compounds and constructs, we used the human fibrosarcoma line HT1080. Two to three days after transfection, cells are plated into G418 and the resistant population or clones are isolated by standard means. To monitor dimerizer-induced apoptosis, cells are plated into a 96-well plate at either 5000 or 10,000 cells/well in MEM medium containing 10% fetal bovine serum. The next day, medium removed and replaced with freshmedium containing the test compound at various dilutions, in triplicate. In some cases, Actinomycin D is included at 50 ng/ml. Untreated wells are always included. The next day, medium is removed and replaced with medium containing 10% Alamar Blue viability indicator, which changes absorbance properties as a function of reducing agent released into the medium by cell metabolism. Alternatively, cells are counted. Optical density at the appropriate wavelength is measured using a platereader spectroscope.

[3] = test system: cells expressing a construct containing p75 followed by 2 mutant FKBPs followed by a Fas effector domain; experiment: Cell death monitored by Alamar Blue or hGH levels in hGH-expressing clones; type: cell-based
Excerpt: As an alternative method for monitoring cell death, cells expressing a construct containing p75 followed by 2 mutant FKBPs followed by a Fas effector domain were transfected using an episomal vector, pCEP4 (Invitrogen Corp.) into which we had inserted DNA encoding hGH under control of a CMV promoter. The vector confers resistance to hygromycin. […] Monitoring Alamar Blue or hGH levels led to very similar EC50 curves for cell viability (measured as a % of control value) plotted against dimerizer concentration. In both cases the concentration of dimerizer corresponding to 50% of control was less than 1 nM.

[4] = Synthetic Monomers table, normalized to value of FK506 run in the same experiment, read-out: wild-type IC50
[5] = Synthetic Monomers table, normalized to value of FK506 run in the same experiment, read-out: F36V IC50
[6] = Synthetic Monomers table, normalized to value of FK506 run in the same experiment, read-out: F36L IC50
[7] = read-out: FKBPwt binding affinity IC50
[8] = Synthetic Multimerizers table, monomer value in brackets, mean of duplicates, normalized to FK506 = […] (substituted phenyl/lower aliphatic series: to AP1903 values), read-out: FKBPF36V binding affinity IC50

Chain of wild-type human FKBP12 (P62942 2-108): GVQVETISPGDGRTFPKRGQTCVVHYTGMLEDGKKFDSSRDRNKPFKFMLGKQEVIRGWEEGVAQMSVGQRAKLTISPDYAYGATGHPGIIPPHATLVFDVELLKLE
Chain of F36L mutant FKBP (P62942 2-108 F37L): as the sequence (P62942 2-108) above, with F36L counted along it

Row | Molecule | IC50 (wild-type human FKBP12; [4]) [µM] | IC50 (mutant (F36V) FKBP; [5]) [nM] | IC50 (F36L mutant FKBP; [6]) [nM] | IC50 (F36I mutant FKBP) [nM] | IC50 (F36M mutant FKBP) [nM] | IC50 (F36A mutant FKBP) [nM] | IC50 (mutant (F36V) FKBP; [8]) [nM] | also measured
1 | COc1ccc(CCC(OC(=O)C2CCCCN2C(=O)C(c2ccccc2)C2CCCC2)c2cccc(OCC(=O)O)c2)cc1OC (mixture of isomers) [AP1778] | 16 | 22 | 32 |  |  |  |  | 
2 | COc1ccc(CCC(OC(=O)C2CCCCN2C(=O)C(c2ccccc2)C(C)C)c2cccc(OCC(=O)O)c2)cc1OC (mixture of isomers) [AP1781] | 38.6 | 26 | 33 |  |  |  |  | 
3 | COc1ccc(CCC(OC(=O)C2CCCCN2C(=O)C(Cc2ccccc2)c2ccccc2)c2cccc(OCC(=O)O)c2)cc1OC (mixture of isomers) [AP1831] | > 10 | 153 | 217 |  |  |  |  | 
4 | CCC(C)(C)C(=O)C(=O)N1CCCC[C@H]1C(=O)O[C@H](CCc1ccc(OC)c(OC)c1)c1cccc(OCC(=O)O)c1 [AP1497] | 0.086 | 44 | 47 |  |  |  |  | 
5 | CC[C@@H](C(=O)N1CCCC[C@H]1C(=O)O[C@H](CCc1ccc(OC)c(OC)c1)c1cccc(OCC(=O)O)c1)c1ccccc1 [AP1769] | 220 | 133 | 238 | 346 | 193 | 460 |  | 
6 | COc1ccc(CC[C@@H](OC(=O)[C@@H]2CCCCN2C(=O)Cc2ccccc2)c2cccc(OCC(=O)O)c2)cc1OC [AP1780] | 21.6 | 1530 |  | 2060 | 2600 | 8330 |  | IC50 (F36L mutant FKBP; read-out: F36L IC50): 3580 nM
7 | COc1ccc(CC[C@@H](OC(=O)[C@@H]2CCCCN2C(=O)[C@H](C)c2ccccc2)c2cccc(OCC(=O)O)c2)cc1OC [AP1782] | > 100 | 590 | 1400 | 1050 | 927 | 1430 |  | 
8 | COc1ccc(CC[C@@H](OC(=O)[C@@H]2CCCCN2C(=O)[C@@H](C)c2ccccc2)c2cccc(OCC(=O)O)c2)cc1OC [AP1784] | 16 | 94 | 92 | 117 | 414 | 171 |  | 
9 | CCC(C(=O)N1CCCC[C@H]1C(=O)O[C@H](CCc1ccc(OC)c(OC)c1)c1cccc(OCC(=O)O)c1)c1ccc2c(c1)OCO2 (some centres unmarked) [AP1839] | 13.5 | 9 |  | 26 | 19 | 32 | 5.4 | IC50 (wild-type human FKBP12; [7]): 16.7 µM; IC50 (F36L mutant FKBP; read-out: F36L IC50): 57 nM
10 | CC[C@H](C(=O)N1CCCC[C@H]1C(=O)O[C@H](CCc1ccc(OC)c(OC)c1)c1cccc(OCC(=O)O)c1)c1cc(OC)c(OC)c(OC)c1 [AP1867] |  |  |  |  |  |  | 1.8 | IC50 (wild-type human FKBP12; [7]): 1.96 µM; IC50 (F36L mutant FKBP; read-out: FKBPF36L binding affinity IC50): 6.2 nM
11 | CCC(C(=O)N1CCCC[C@H]1C(=O)O[C@H](CCc1ccc(OC)c(OC)c1)c1cccc(OCC(=O)NCCNC(=O)COc2cccc([C@@H](CCc3ccc(OC)c(OC)c3)OC(=O)[C@@H]3CCCCN3C(=O)C(CC)c3ccc4c(c3)OCO4)c2)c1)c1ccc2c(c1)OCO2 (some centres unmarked) [AP1885] |  |  |  |  |  |  | 59.4 | activation of transcription (wt; stable): % @ 1000 [1]: 0% @ 1000; Fas killing (wt, stable): % @ 1000 [2]: 0% @ 1000
12 | CC[C@H](C(=O)N1CCCC[C@H]1C(=O)O[C@H](CCc1ccc(OC)c(OC)c1)c1cccc(OCC(=O)NCCNC(=O)COc2cccc([C@@H](CCc3ccc(OC)c(OC)c3)OC(=O)[C@@H]3CCCCN3C(=O)[C@@H](CC)c3ccccc3)c2)c1)c1ccccc1 [AP1889] |  |  |  |  |  |  | 10000 | activation of transcription (wt; stable): % @ 1000 [1]: 0% (2×) and 1%; Fas killing (wt, stable): % @ 1000 [2]: 0% @ 1000
13 | CCC(CC)C(=O)N1CCCC[C@H]1C(=O)O[C@H](CCc1ccc(OC)c(OC)c1)c1cccc(OCC(=O)NCCNC(=O)COc2cccc([C@@H](CCc3ccc(OC)c(OC)c3)OC(=O)[C@@H]3CCCCN3C(=O)C(CC)CC)c2)c1 [AP1891] |  |  |  |  |  |  |  | activation of transcription (wt; stable): % @ 1000 [1]: 0% @ 1000; Fas killing (wt, stable): % @ 1000 [2]: 0% @ 1000
14 | CCC(CC)NC(=O)N1CCCC[C@H]1C(=O)O[C@H](CCc1ccc(OC)c(OC)c1)c1cccc(OCC(=O)NCCNC(=O)COc2cccc([C@@H](CCc3ccc(OC)c(OC)c3)OC(=O)[C@@H]3CCCCN3C(=O)NC(CC)CC)c2)c1 [AP1966] |  |  |  |  |  |  | 58 | 
15 | COc1ccc(CC[C@@H](OC(=O)[C@@H]2CCCCN2C(=O)C(c2ccccc2)c2ccccc2)c2cccc(OCC(=O)O)c2)cc1OC [AP14245] |  | 273 | 684 | 562 | 173 | 127 |  | 
16 | CC[C@H](C(=O)N1CCCC[C@H]1C(=O)O[C@H](CCN1CCOCC1)c1cccc(OCC(=O)O)c1)c1cc(OC)c(OC)c(OC)c1 [AP14246, (1R)-1-(3-(carboxymethoxy)phenyl)-3-(morpholino)-1-propyl (2S)-1-((2S)-(3,4,5-trimethoxyphenyl)butyryl)-2-piperdine carboxylate] |  |  |  |  |  |  | 16.5 | 
17 | AP1903 |  |  |  |  |  |  |  | EC50 ([2]; mean values, read-out: Fas killing (wt, stable) EC50): 40 to 50 nM; EC50 ([3]; Alamar Blue readout, read-out: concentration of dimerizer corresponding to 50% of control (cell viability, Alamar Blue)): < 1 nM; EC50 ([3]; hGH readout, read-out: concentration of dimerizer corresponding to 50% of control (hGH levels)): < 1 nM
